Assay results from patent US20020133009A1, “Method for opening potassium channels” (priority 2001, published 2002).

Key:
[1] = target: T1, maxi-K+ channels (Bos taurus, UniProt Q28204); assay: Patch clamp whole-cell current measurements in cultured bovine trabecular meshwork (TM) cells; assay type: cell-based
T1 construct: endogenous in cells; host or cells: cultured bovine trabecular meshwork (TM) cells
Protocol: (§1) Patch clamp experiments of cultured human and bovine trabecular meshwork (TM) cells are performed. Nystatin in a pipette is used to obtain perforated patches. Whole-cell current measurements in the cells are performed. Voltages from −80mV to +120mV with 200-msec duration each are applied through the patch pipette, starting from a holding potential of −40mV. After each step, the voltage is returned to a holding potential of […] for 200-msec. Currents are continuously sampled at 100 Hz throughout the duration of the protocol.

[2] = target: T2, maxi-K+ channels (Homo sapiens, UniProt Q12791); assay: Patch clamp whole-cell current measurements in cultured human trabecular meshwork (TM) cells; assay type: cell-based
T2 construct: endogenous in cells; host or cells: cultured human trabecular meshwork (TM) cells
T2 sequence (Q12791 whole entry): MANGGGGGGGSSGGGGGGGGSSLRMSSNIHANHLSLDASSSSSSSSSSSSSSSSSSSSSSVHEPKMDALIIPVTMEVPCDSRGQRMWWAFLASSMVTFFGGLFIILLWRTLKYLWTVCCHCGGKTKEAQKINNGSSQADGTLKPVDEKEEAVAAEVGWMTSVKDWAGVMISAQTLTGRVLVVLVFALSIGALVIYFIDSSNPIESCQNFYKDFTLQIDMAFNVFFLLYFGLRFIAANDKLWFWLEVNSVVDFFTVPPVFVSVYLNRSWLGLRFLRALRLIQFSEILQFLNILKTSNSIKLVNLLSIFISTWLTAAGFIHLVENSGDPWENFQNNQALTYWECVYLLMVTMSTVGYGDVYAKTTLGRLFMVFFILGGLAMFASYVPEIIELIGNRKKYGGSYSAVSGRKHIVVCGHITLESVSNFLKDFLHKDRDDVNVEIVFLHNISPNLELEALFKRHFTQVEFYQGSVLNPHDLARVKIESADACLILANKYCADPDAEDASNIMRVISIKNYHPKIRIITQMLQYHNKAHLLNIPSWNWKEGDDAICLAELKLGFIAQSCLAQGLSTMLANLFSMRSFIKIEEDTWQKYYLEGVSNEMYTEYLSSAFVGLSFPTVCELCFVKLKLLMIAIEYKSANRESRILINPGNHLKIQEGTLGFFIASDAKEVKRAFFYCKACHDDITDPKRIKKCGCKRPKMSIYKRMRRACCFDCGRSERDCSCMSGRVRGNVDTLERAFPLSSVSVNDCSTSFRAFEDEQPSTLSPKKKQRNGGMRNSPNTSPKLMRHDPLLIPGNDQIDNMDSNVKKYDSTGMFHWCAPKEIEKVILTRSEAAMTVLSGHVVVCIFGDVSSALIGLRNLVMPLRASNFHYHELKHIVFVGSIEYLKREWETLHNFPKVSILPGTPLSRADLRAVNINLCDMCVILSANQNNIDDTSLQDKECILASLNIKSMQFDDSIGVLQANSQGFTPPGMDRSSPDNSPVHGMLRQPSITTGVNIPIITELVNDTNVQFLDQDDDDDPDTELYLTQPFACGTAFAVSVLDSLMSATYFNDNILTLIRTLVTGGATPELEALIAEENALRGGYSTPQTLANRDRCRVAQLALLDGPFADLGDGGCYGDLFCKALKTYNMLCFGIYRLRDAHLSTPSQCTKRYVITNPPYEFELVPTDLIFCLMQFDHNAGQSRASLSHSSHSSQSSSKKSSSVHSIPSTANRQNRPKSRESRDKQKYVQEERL
Protocol: as §1

T1 sequence (Q28204 whole entry): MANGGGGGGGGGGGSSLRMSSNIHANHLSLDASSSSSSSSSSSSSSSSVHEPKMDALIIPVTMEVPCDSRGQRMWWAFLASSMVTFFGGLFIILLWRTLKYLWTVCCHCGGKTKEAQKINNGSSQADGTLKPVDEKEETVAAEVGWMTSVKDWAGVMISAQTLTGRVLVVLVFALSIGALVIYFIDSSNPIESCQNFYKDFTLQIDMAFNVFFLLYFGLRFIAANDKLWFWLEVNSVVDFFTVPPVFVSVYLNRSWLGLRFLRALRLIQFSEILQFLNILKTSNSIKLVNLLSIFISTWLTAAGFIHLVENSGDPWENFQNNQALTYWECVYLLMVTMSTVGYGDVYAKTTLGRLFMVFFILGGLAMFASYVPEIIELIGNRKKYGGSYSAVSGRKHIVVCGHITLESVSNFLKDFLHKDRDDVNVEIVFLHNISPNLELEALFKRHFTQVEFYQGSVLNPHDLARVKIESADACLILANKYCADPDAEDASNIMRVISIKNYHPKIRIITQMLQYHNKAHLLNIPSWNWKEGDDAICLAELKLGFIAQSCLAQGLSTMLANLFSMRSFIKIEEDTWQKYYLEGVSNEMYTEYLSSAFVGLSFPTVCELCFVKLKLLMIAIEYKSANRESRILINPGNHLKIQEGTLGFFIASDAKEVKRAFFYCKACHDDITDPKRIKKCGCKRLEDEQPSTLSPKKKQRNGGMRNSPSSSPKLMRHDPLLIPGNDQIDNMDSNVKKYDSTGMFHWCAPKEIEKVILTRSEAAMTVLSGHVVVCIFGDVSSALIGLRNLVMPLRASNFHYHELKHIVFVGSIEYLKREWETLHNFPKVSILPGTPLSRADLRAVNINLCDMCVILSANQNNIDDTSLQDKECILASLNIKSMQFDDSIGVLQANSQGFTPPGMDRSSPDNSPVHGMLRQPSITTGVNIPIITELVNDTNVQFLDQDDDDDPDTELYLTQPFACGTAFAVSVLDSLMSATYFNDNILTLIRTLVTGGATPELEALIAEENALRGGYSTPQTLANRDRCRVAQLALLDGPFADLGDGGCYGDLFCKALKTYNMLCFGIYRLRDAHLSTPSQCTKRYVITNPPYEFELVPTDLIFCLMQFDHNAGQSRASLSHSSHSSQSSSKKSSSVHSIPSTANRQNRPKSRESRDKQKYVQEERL

Molecule | overall current of the cells ([1]; bovine TM cells incubated in either acetylcholine or endothelin) | total current, % of the control ([1]; bovine trabecular meshwork cells incubated in acetylcholine, 10^-5 M unoprostone isopropyl, p<0.01) | maxi-K+ channel opening ([1]; conclusion from iberiotoxin block, TM cells, species not given) | overall current of the cells ([2]; human TM cells incubated in either acetylcholine or endothelin) | overall current ([2]; human trabecular meshwork cells incubated in acetylcholine) | overall current ([2]; human trabecular meshwork cells incubated in the presence of endothelin) | effect on unoprostone isopropyl-induced current ([1]; TM cells, species not given) | total current inhibited by iberiotoxin, % of the control ([1]; bovine trabecular meshwork cells incubated in acetylcholine, after unoprostone isopropyl stimulation)
CCCCCCCC(=O)CC[C@@H]1[C@@H](C/C=C\CCCC(=O)OC(C)C)[C@@H](O)C[C@H]1O [unoprostone isopropyl, [1R-[1α(Z),2β,3a,5a]]-7-[3,5-dihydroxy-2-(3-oxodecyl)cyclopentyl]-5-heptenoic acid isopropyl ester] | stimulated the overall current | approximately 180% | opens maxi-K+ channels | stimulated the overall current | stimulates the overall current | induces an increase in the overall current | – | –
iberiotoxin: highly specific inhibitor of maxi-K+ channels (QFTDVDCSVSKECWSVCKDLFGVDRGKCMGKKCRCYQ; UniProt P24663 1-37, looked up) [reference compound] | – | – | – | – | – | – | totally reduced | approximately 40%
